Assay results: US20240165114A1, “TREATMENT OF DIABETIC NEPHROPATHY WITH AN sGC STIMULATOR” (Cyclerion Therapeutics, Inc., priority 2019, published 2024)

Tests used:
[1] = patient concomitantly taking a strong CYP3A inhibitor; cited from earlier work
[2] = test system: adult patients with type 2 diabetes mellitus with albuminuria; test: Phase 2 study: serum cholesterol; assay type: in vivo, human; conditions: for Serum Cholesterol: Between PRL and PBO Group LS Mean Change from Baseline at week 12 / Serum Cholesterol: Within Group LS Mean Change from Baseline at Week 12: ITT; for Cholesterol: Placebo-Adjusted LS Mean Change from Baseline at Week 12 / Cholesterol: Within Group LS Mean Change from Baseline at Week 12: mITT Population
Text: (§1) Other secondary objectives of this clinical study included the evaluation of the pharmacokinetic (PK) concentrations of oral IW-1973 and the exploration of the effect of oral IW-1973 on hemodynamics and metabolic effects when administered daily for approximately 12 weeks to adult patients with type 2 diabetes mellitus with albuminuria (i.e., DN patients) who were on a stable regimen of renin-angiotensin system inhibitors (RAAS inhibitors, i.e., ACEi's and ARBs).
(§2) Clinical laboratory assessments obtained during the performance of this clinical trial included: complete blood count, serum chemistry panel, urinalysis, coagulation panel, estimated glomerular filtration rate (eGFR; determined by the Chronic Kidney Disease Epidemiology Collaboration [CKD-EPI] creatinine equation), hemoglobin A1c (HbA1C), Homeostatic Model Assessment to estimate insulin resistance (HOMA-IR), platelet function assessment (using VerifyNow®, at a subset of sites), urine pregnancy, and screens for hepatitis, human immunodeficiency virus, and drugs of abuse.
(§3) This multicenter, randomized, double-blind, placebo-controlled, parallel-group study evaluated 2 dose levels of IW-1973 compared with placebo. The study population consisted of adult patients with type 2 diabetes mellitus, albuminuria, and impaired renal function. Patients had to have been taking antihyperglycemic medications for at least 12 weeks with their regimen being stable (ie, drug and dose) for at least 28 days before the Randomization Visit. Additionally, patients had to have been on a stable regimen of angiotensin-converting enzyme inhibitor (ACEi) or an angiotensin receptor blocker (ARB), for at least 28 days before the Randomization Visit. For more details, see Inclusion Criteria below. A total of 156 patients (approximately 50 patients per arm) were stratified by baseline estimated glomerular filtration rate (eGFR) into three groups: eGFR 30 to 45, >45 to 60, and >60 to 75 mL/min/1.73 m^2) and randomized approximately 1:1:1 to total daily 20 mg IW-1973, 40 mg IW-1973, or placebo.

[3] = test system: adult patients with type 2 diabetes mellitus with albuminuria; test: Phase 2 study: serum LDL cholesterol; assay type: in vivo, human; conditions: for Serum LDL Cholesterol: Between PRL and PBO Group LS Mean Change from Baseline at week 12 / Serum LDL Cholesterol: Within Group LS Mean Change from Baseline at Week 12: ITT; for LDL Cholesterol: Placebo Adjusted LS Mean Change from Baseline at Week 12 / LDL Cholesterol: Within Group LS Mean Change from Baseline at Week 12: mITT Population
Text: as §1, §2, §3

[4] = test system: adult patients with type 2 diabetes mellitus with albuminuria; test: Phase 2 study: 24-hour ambulatory blood pressure monitoring (ABPM); assay type: in vivo, human; conditions: ITT, 24-Hour ABPM
Method: Hemodynamic and vital signs that were measure included seated and standing BP (systolic and diastolic) and pulse measurements by automated office blood pressure (AOBP), ambulatory BP (systolic and diastolic) and pulse monitoring, respiratory rate, oral temperature. Orthostatic (standing minus seated) measurements were calculated for BPs and pulse.
as §3
Screening Period: The Screening Period began with the signature of the informed consent form (ICF) at the Screening Visit and lasted up to 45 days. At the Screening Visit (which could occur from Day −45 to Day −15), patients underwent preliminary screening procedures to determine their eligibility. Eligible patients returned to the clinic for the Baseline Visit ([…]) for baseline and eligibility assessments including 24-hour ambulatory blood pressure monitoring (ABPM). The end of the Screening Period coincided with the beginning of the Treatment Period.
Dosing on Days 1 to 7 (±1) was BID (twice daily), morning and evening; dosing on Day 8 (±1) and onward was QD (once daily), 2 tablets in the morning. At the Randomization Visit on Day 1, patients received their morning dose of study drug in the clinic and underwent safety, efficacy, and pharmacokinetic (PK) assessments, including blood and urine collections at prespecified times. Patients stayed in the clinic at least 6 hours postdose and were able to leave the clinic at the Investigator's discretion following all study procedures. At the Week 1 Visit on Day 8 (±1), patients returned to the clinic and received their first QD dose of study drug in the clinic. Patients underwent safety, efficacy, and PK assessments, including blood and urine collections at prespecified times. Patients stayed in the clinic at least 6 hours postdose and were able to leave the clinic at the Investigator's discretion following all study procedures. At the Week 4 (Day 29±3), Week 8 (Day 57±3), and End of Treatment (Day 87±3) Visits, patients returned to the clinic for study drug administration; safety, efficacy, and PK assessments; and study drug supply, if applicable.

[5] = test system: adult patients with type 2 diabetes mellitus with albuminuria; test: Phase 2 study: fasting plasma glucose; assay type: in vivo, human; conditions: ITT
Text: as §1, §2, §3

Q: With `OC(CNc1nc(-c2cc(-c3ccon3)n(Cc3ccccc3F)n2)ncc1F)(C(F)(F)F)C(F)(F)F` [Compound I, praliciguat] as the compound, how does the “AUC with concomitant strong CYP3A inhibitor versus without” value [1] read?
A: Its value is “doubled”.

Q: What about the “T1/2 with concomitant strong CYP3A inhibitor versus without” value [1] of the same compound?
A: The value was “doubled”.

Q: What about the “Serum Cholesterol: Between PRL and PBO Group LS Mean Change from Baseline at week 12” value ([2]; PRL 20 mg) of the same compound?
A: The value was -12.1 mg/dL.

Q: What about the “Serum Cholesterol: Within Group LS Mean Change from Baseline at Week 12” value ([2]; PRL 20 mg) of the same compound?
A: The value was -7.8 mg/dL.

Q: And the “Serum Cholesterol: Between PRL and PBO Group LS Mean Change from Baseline at week 12” value ([2]; PRL 40 mg)?
A: The value was -8.1 mg/dL.

Q: And the “Serum Cholesterol: Within Group LS Mean Change from Baseline at Week 12” value ([2]; PRL 40 mg)?
A: Its value is -3.7 mg/dL.

Q: And the “Serum Cholesterol: Between PRL and PBO Group LS Mean Change from Baseline at week 12” value ([2]; PRL Combined)?
A: The value was -10.1 mg/dL.

Q: And the “Serum Cholesterol: Within Group LS Mean Change from Baseline at Week 12” value ([2]; PRL Combined)?
A: Its value is -5.8 mg/dL.

Q: And the “Cholesterol: Placebo-Adjusted LS Mean Change from Baseline at Week 12” value ([2]; PRL 20 mg)?
A: The value was -13.1 mg/dL.

Q: What about the “Cholesterol: Within Group LS Mean Change from Baseline at Week 12” value ([2]; PRL 20 mg) of the same compound?
A: The value was -10.6 mg/dL.

Q: And the “Cholesterol: Placebo-Adjusted LS Mean Change from Baseline at Week 12” value ([2]; PRL 40 mg)?
A: The value was -7.5 mg/dL.

Q: What about the “Cholesterol: Within Group LS Mean Change from Baseline at Week 12” value ([2]; PRL 40 mg) of the same compound?
A: The value was -4.8 mg/dL.

Q: What about the “Cholesterol: Placebo-Adjusted LS Mean Change from Baseline at Week 12” value ([2]; PRL Combined) of the same compound?
A: Its value is -10.2 mg/dL.

Q: And the “Cholesterol: Within Group LS Mean Change from Baseline at Week 12” value ([2]; PRL Combined)?
A: The value was -7.7 mg/dL.

Q: What about the “Serum LDL Cholesterol: Between PRL and PBO Group LS Mean Change from Baseline at week 12” value ([3]; PRL 20 mg) of the same compound?
A: Its value is -8.9 mg/dL.

Q: What about the “Serum LDL Cholesterol: Within Group LS Mean Change from Baseline at Week 12” value ([3]; PRL 20 mg) of the same compound?
A: Its value is -6.0 mg/dL.

Q: And the “Serum LDL Cholesterol: Between PRL and PBO Group LS Mean Change from Baseline at week 12” value ([3]; PRL 40 mg)?
A: Its value is -6.2 mg/dL.

Q: And the “Serum LDL Cholesterol: Within Group LS Mean Change from Baseline at Week 12” value ([3]; PRL 40 mg)?
A: The value was -3.3 mg/dL.

Q: And the “Serum LDL Cholesterol: Between PRL and PBO Group LS Mean Change from Baseline at week 12” value ([3]; PRL Combined)?
A: Its value is -7.5 mg/dL.

Q: What about the “Serum LDL Cholesterol: Within Group LS Mean Change from Baseline at Week 12” value ([3]; PRL Combined) of the same compound?
A: The value was -4.6 mg/dL.

Q: What about the “LDL Cholesterol: Placebo Adjusted LS Mean Change from Baseline at Week 12” value ([3]; PRL 20 mg) of the same compound?
A: The value was -13.4 mg/dL.

Q: And the “LDL Cholesterol: Within Group LS Mean Change from Baseline at Week 12” value ([3]; PRL 20 mg)?
A: The value was -8.8 mg/dL.

Q: And the “LDL Cholesterol: Placebo Adjusted LS Mean Change from Baseline at Week 12” value ([3]; PRL 40 mg)?
A: The value was -9.5 mg/dL.

Q: What about the “LDL Cholesterol: Within Group LS Mean Change from Baseline at Week 12” value ([3]; PRL 40 mg) of the same compound?
A: Its value is -4.9 mg/dL.

Q: What about the “LDL Cholesterol: Placebo Adjusted LS Mean Change from Baseline at Week 12” value ([3]; PRL Combined) of the same compound?
A: The value was -11.4 mg/dL.

Q: What about the “LDL Cholesterol: Within Group LS Mean Change from Baseline at Week 12” value ([3]; PRL Combined) of the same compound?
A: The value was -6.9 mg/dL.

Q: And the “Between PRL and PBO Group LS Mean Change 24-hour MAP from Baseline at week 12” value ([4]; PRL 20 mg)?
A: The value was −3.96 mmHg.

Q: What about the “Between PRL and PBO Group LS Mean Change 24-hour SBP from Baseline at week 12” value ([4]; PRL 20 mg) of the same compound?
A: The value was −4.06 mmHg.

Q: What about the “Within Group LS Mean Change from Baseline 24-hour MAP at Week 12” value ([4]; PRL 20 mg) of the same compound?
A: The value was −3.62 mmHg.

Q: And the “Within Group LS Mean Change from Baseline 24-hour SBP at Week 12” value ([4]; PRL 20 mg)?
A: The value was −4.18 mmHg.

Q: And the “Between PRL and PBO Group LS Mean Change 24-hour MAP from Baseline at week 12” value ([4]; PRL 40 mg)?
A: The value was −3.58 mmHg.

Q: And the “Between PRL and PBO Group LS Mean Change 24-hour SBP from Baseline at week 12” value ([4]; PRL 40 mg)?
A: Its value is −4.29 mmHg.

Q: What about the “Within Group LS Mean Change from Baseline 24-hour MAP at Week 12” value ([4]; PRL 40 mg) of the same compound?
A: The value was −3.23 mmHg.

Q: What about the “Within Group LS Mean Change from Baseline 24-hour SBP at Week 12” value ([4]; PRL 40 mg) of the same compound?
A: The value was −4.41 mmHg.

Q: And the “Between PRL and PBO Group LS Mean Change 24-hour MAP from Baseline at week 12” value ([4]; PRL Combined)?
A: The value was −3.77 mmHg.

Q: And the “Between PRL and PBO Group LS Mean Change 24-hour SBP from Baseline at week 12” value ([4]; PRL Combined)?
A: Its value is −4.17 mmHg.

Q: What about the “Within Group LS Mean Change from Baseline 24-hour MAP at Week 12” value ([4]; PRL Combined) of the same compound?
A: The value was −3.43 mmHg.

Q: And the “Within Group LS Mean Change from Baseline 24-hour SBP at Week 12” value ([4]; PRL Combined)?
A: The value was −4.30 mmHg.

Q: What about the “Fasting Plasma Glucose: Between PRL and PBO Group LS Mean Change from Baseline at week 12” value ([5]; PRL 20 mg) of the same compound?
A: Its value is 2.3 mg/dL.

Q: And the “Fasting Plasma Glucose: Within Group LS Mean Change from Baseline at Week 12” value ([5]; PRL 20 mg)?
A: The value was 6.09 mg/dL.

Q: What about the “Fasting Plasma Glucose: Between PRL and PBO Group LS Mean Change from Baseline at week 12” value ([5]; PRL 40 mg) of the same compound?
A: Its value is -18.2 mg/dL.

Q: And the “Fasting Plasma Glucose: Within Group LS Mean Change from Baseline at Week 12” value ([5]; PRL 40 mg)?
A: Its value is -14.4 mg/dL.

Q: And the “Fasting Plasma Glucose: Between PRL and PBO Group LS Mean Change from Baseline at week 12” value ([5]; PRL Combined)?
A: Its value is -7.9 mg/dL.

Q: What about the “Fasting Plasma Glucose: Within Group LS Mean Change from Baseline at Week 12” value ([5]; PRL Combined) of the same compound?
A: Its value is -4.1 mg/dL.
